The assay has as its system CCC cells from a breast cancer patient (ER+, PR−, HER2 (2+)). Description: Drug-sensitivity assay of cultured CCCs (Presto Blue cell growth/viability). As to conditions: cultured CCCs grown in MammoCult media, 10 000 cells per well, 48 hours incubation, Presto Blue fluorescence vs vehicle-treated cells (FIG. 13). The format is cell-based, human. How it is done:
One or more frozen aliquot of RoboSep™ CD45-negative cell population (described in Example I and containing about 5×10^6 nucleated cells and about 1 000 to 3 000 CTCs based on Epimet™-positive staining) is cultured in the conditions described in Example II until approximately 600 000 cells are obtained (usually after 6 subculture steps). This amount of cells is sufficient for testing four distinct compounds in triplicate at four different concentrations using a plating density of approximately 5 000 to 10 000 cells/well in 96-well plates. Cells are plated onto ultra-low attachment microtiter plates at 5 000 to 10 000 cells/well in 125 μL of fresh MammoCult™ media in triplicates. Experimental and control samples (no cells added) are incubated for 24 hours at 37° C. and 5% CO2. […] Fluorescence intensity (FI) is determined using a spectrofluorometer (excitation: 530-560 nm; emission: 590 nm). Dose response curves are calculated as a percentage of untreated controls (FI590 of test agent dilution/FI590 of untreated control)×100 and the LD50 are calculated.
Cells were collected by aphaeresis from a breast cancer patient (ER+, PR−, HER2 (2+)) diagnosed with invasive lobular carcinoma and metastatic spread to bone, liver and the mediastinum. […] Cell growth/viability was assessed using Presto Blue®(Invitrogen). […] Fluorescence values use the excitation and emission peaks for resorufin. […]

Consider 2 compounds from patent publication US9057055B2, “Method of obtaining circulating cancer cell populations” (THE ROYAL INSTITUTION FOR THE ADVANCEMENT OF …, priority 2012, dated 2015).

As to `COc1cccc2c1C(=O)c1c(O)c3c(c(O)c1C2=O)C[C@@](O)(C(=O)CO)C[C@@H]3O[C@H]1C[C@H](N)[C@@H](O)[C@H](C)O1` [epirubicin], where the note is “Homo sapiens, low attachment 96-well plate, read-out: IC50 of inhibition of cell growth”, the IC50 (usually the concentration that inhibits the measured activity by half) is roughly 1 µM. As to `CC(=O)O[C@H]1C(=O)[C@@]2(C)[C@H]([C@H](OC(=O)c3ccccc3)[C@]3(O)C[C@H](OC(=O)[C@H](O)[C@@H](NC(=O)c4ccccc4)c4ccccc4)C(C)=C1C3(C)C)[C@]1(OC(C)=O)CO[C@@H]1C[C@@H]2O` [taxol, paclitaxel], the “effect on cell growth” value (increasing concentrations) was “no effect”.
